From patent US20110053916A1 (Vertex Pharmaceuticals Incorporated, priority 2009, published 2011) come the findings set out here.

One assay concerns the target T1, PknB (Mycobacterium tuberculosis, UniProt P9WI81).
T1 construct: made in house
In words: biochemical. Set-up: species or system M. tuberculosis. Conditions: 3 nM PknB, 6 uM GarA, 3 μM ATP, 30 min, competitive tight-binding fit, several symbols in a cell = repeat determinations; for pKi: read-out: Ki Values.

Assay [1] concerns Mycobacterium tuberculosis H37Ra. In words: Mycobacterium tuberculosis growth inhibition assay (microtiter dilution, resazurin reduction). The assay is classed as cell-based. Conditions: 7H9 broth, 9 days + 24 h resazurin, lowest concentration inhibiting resazurin reduction by >70%, several symbols in a cell = repeat determinations. The method, then:
Compounds were screened for their ability to inhibit the growth of Mycobacterium tuberculosis H37Ra using a standard microtiter dilution method with reduction of the dye resazurin as an indicator of growth. The growth assay was carried out in standard Mycobacterium liquid growth medium, 7H9Broth (BD Biosciences, Franklin Lakes, N.J.) supplemented with 10% ADC enrichment (BD Biosciences, Franklin Lakes, N.J.). The medium was inoculate with ˜1×10^6 cells/milliliter of Mycobacterium tuberculosis H37Ra grown on a the surface of a growth medium solid medium (7H11 agar [BD Biosciences, Franklin Lakes, N.J.] supplemented with 10% OADC enrichment [BD Biosciences, Franklin Lakes, N.J.]).
Two-fold serial dilutions (either 7 or 11-step series) of test compounds in DMSO were dispensed into 96-well assay plates (sterile, black sided, clear bottom wells) in a volume of 1 microliter. One microliter of DMSO was dispensed into a control well at the end of each series. One-hundred microliters of the bacterial cell suspension in growth medium was dispensed into each test well containing a DSMO solution of compound. The assay plates were covered with a fitted lid and incubated at 37° C. in a humidified chamber for 9 days. On the ninth day 30 microliters of a 0.01% solution of resazurin (Sigma Chemical Co., St. Louis, Mo.) in distilled water was added to each well and the baseline fluorescence of resazurin was determined by measuring well fluorescence at an excitation wavelength of 492 nm and an emission wavelength of 595 nm on a Spectrafluor Plus (Tecan, Durham, N.C.) instrument. The assay plates were returned to the incubation chamber for 24 hours. After 24 hours, the fluorescence of the wells (resulting from the reduction of resazurin dye) was measured at an excitation wavelength of 492 nm and an emission wavelength of 595 nm on the Spectrafluor Plus instrument. The minimum inhibitory concentration (MIC) was called as the lowest concentration of compound that inhibited the reduction of resazurin by >70%, as compared to the DMSO (untreated) control wells. MIC values are represented as the following values: • A* <1.6 μM • A 1.6 μM<12.5 μM • B** 12.5 μM-25.0 μM • B* 25.0 μM-50.0 μM • B 50.0 μM-100.0 μM • C >100.0 μM
A general note: The colour change of resazurin is a common sign of viable cells or microbes.

The structures appear in SMILES notation. pKi: −log10 of the molar value.

T1 sequence (P9WI81 whole entry): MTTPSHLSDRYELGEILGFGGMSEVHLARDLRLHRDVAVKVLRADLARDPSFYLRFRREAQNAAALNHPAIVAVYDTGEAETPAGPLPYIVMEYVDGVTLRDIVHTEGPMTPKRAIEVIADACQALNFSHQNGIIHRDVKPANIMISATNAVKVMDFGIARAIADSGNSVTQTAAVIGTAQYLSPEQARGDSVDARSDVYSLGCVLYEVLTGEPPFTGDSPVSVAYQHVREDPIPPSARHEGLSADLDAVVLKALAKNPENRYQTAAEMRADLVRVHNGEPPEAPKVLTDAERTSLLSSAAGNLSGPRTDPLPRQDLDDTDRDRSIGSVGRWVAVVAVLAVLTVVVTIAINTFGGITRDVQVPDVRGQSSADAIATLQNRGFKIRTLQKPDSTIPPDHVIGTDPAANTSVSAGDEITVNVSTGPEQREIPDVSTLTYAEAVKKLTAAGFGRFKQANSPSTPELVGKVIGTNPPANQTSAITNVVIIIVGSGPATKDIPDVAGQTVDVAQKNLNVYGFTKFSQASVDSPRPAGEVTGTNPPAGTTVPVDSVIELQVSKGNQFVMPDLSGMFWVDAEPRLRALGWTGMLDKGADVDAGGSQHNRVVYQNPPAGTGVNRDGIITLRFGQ

The pKi is the negative decadic logarithm of the Ki, by convention in mol/L. On to `COc1cnc(N2CCN(C)CC2)nc1Nc1cc(C2CC2)[nH]n1` [Compound 67, N-(5-cyclopropyl-1H-pyrazol-3-yl)-5-methoxy-2-(4-methylpiperazin-1-yl)-pyrimidin-4-amine], for which, at PknB, the pKi was 7.30 to 8.00. The MIC values result in assay [1] was “A+”.

As to `CN(C)S(=O)(=O)c1ccc(-c2ncc(Cl)c(Nc3cc(C4CC4)[nH]n3)n2)s1` [Compound 74, 5-[5-chloro-4-[(5-cyclopropyl-1H-pyrazol-3-yl)amino]-pyrimidin-2-yl]-N,N-dimethyl-thiophene-2-sulfonamide], the pKi on PknB is 8.00 to 9.00. Also, the MIC values result in assay [1] is “A, B++, C”.

Consider `O=C(O)c1ccc(Nc2ncc(Cl)c(Nc3cc(C4CC4)[nH]n3)n2)cc1` [Compound 77, 4-[[5-chloro-4-[(5-cyclopropyl-1H-pyrazol-3-yl)amino]-pyrimidin-2-yl]amino]benzoic acid], for which the pKi on PknB was 6.30 to 7.00. The MIC values entry in assay [1] was “B, C”.

As for `CC(C)(C)OC(=O)NCCNS(=O)(=O)c1ccc(-c2ncc(Cl)c(Nc3cc(C4CC4)[nH]n3)n2)s1` [Compound 78, tert-Butyl 2-(5-(5-chloro-4-(5-cyclopropyl-1H-pyrazol-3-ylamino)pyrimidin-2-yl)thiophene-2-sulfonamido)ethylcarbamate], the negative logarithm of the Ki (pKi) at PknB is 6.30 to 7.00. Further, the MIC values result in assay [1] was “A, B++, C, C”.

Regarding `CN(C)CCNS(=O)(=O)c1ccc(-c2ncc(Cl)c(Nc3cc(C4CC4)[nH]n3)n2)s1` [Compound 79, 5-[5-chloro-4-[(5-cyclopropyl-1H-pyrazol-3-yl)amino]-pyrimidin-2-yl]-N-(2-dimethylaminoethyl)thiophene-2-sulfonamide], on PknB, the pKi is 7.30 to 8.00. The MIC values result in assay [1] is given as “B+, B”.

As for `Nc1ccc(Nc2nccc(Nc3cc(C4CC4)n[nH]3)n2)cc1` [Compound 80, N-(4-aminophenyl)-N′-(5-cyclopropyl-2H-pyrazol-3-yl)-pyrimidine-2,4-diamine], the “Ki Values” on PknB was “A, B**”. Moreover, in assay [1], the MIC values entry is given as “B, C”.

For `CC(=O)OC/C=C/c1cnc(-c2ccccc2)nc1Nc1cc(C2CC2)[nH]n1` [Compound 81, (E)-3-(4-(5-cyclopropyl-1H-pyrazol-3-ylamino)-2-phenylpyrimidin-5-yl)allyl acetate], the pKi at PknB is 6.30 to 7.00. In addition, the MIC values entry in assay [1] is “B++, B+”.

Take `O=S(=O)(NCCO)c1ccc(Nc2nccc(Nc3cc(C4CC4)n[nH]3)n2)cc1` [Compound 83, 4-[[4-[(5-cyclopropyl-2H-pyrazol-3-yl)amino]pyrimidin-2-yl]amino]-N-(2-hydroxyethyl)benzenesulfonamide]: the “Ki Values” on PknB is “A**, A*”. For the same compound, the MIC values entry in assay [1] is listed as “B+”.

On to `O=S(=O)(NCCO)c1ccc(-c2ncc(Cl)c(Nc3cc(C4CC4)[nH]n3)n2)s1` [Compound 86, 5-[5-chloro-4-[(5-cyclopropyl-1H-pyrazol-3-yl)amino]-pyrimidin-2-yl]-N-(2-hydroxyethyl)thiophene-2-sulfonamide], for which, at PknB, the pKi is 8.00 to 9.00. The MIC values entry in assay [1] was “B++”.

On to `COCCNS(=O)(=O)c1ccc(-c2ncc(Cl)c(Nc3cc(C4CC4)[nH]n3)n2)s1` [Compound 88, 5-(5-chloro-4-(5-cyclopropyl-1H-pyrazol-3-ylamino)pyrimidin-2-yl)-N-(2-methoxyethyl)thiophene-2-sulfonamide], for which, on PknB, the negative-log Ki (pKi) is 7.30 to 8.00. In addition, the MIC values result in assay [1] is reported as “B+, C”.

As to `O=S(=O)(NC1CC1)c1ccc(Nc2nccc(Nc3cc(C4CC4)n[nH]3)n2)cc1` [Compound 90, N-cyclopropyl-4-[[4-[(5-cyclopropyl-2H-pyrazol-3-yl)amino]pyrimidin-2-yl]amino]-benzenesulfonamide], the negative logarithm of the Ki (pKi) on PknB is 7.30 to 8.00. In assay [1], the MIC values entry is listed as “B+”.

Regarding `C#Cc1cnc(Nc2ccc3[nH]ncc3c2)nc1Nc1cc(C2CC2)[nH]n1` [Compound 91, N^4-(5-cyclopropyl-1H-pyrazol-3-yl)-5-ethynyl-N^2-(1H-indazol-5-yl)pyrimidine-2,4-diamine], on PknB, the pKi is 7.30 to 8.00. The MIC values result in assay [1] is “B+”.

Regarding `C#Cc1cnc(-c2ccc(C)c(C(N)=O)c2)nc1Nc1cc(C2CC2)[nH]n1` [Compound 93, 5-(4-(5-Cyclopropyl-1H-pyrazol-3-ylamino)-5-ethynylpyrimidin-2-yl)-2-methyl benzamide], the pKi on PknB is 7.30 to 8.00. In assay [1], the MIC values entry is listed as “B, C”.

For `CS(=O)(=O)c1ccc(Nc2nccc(Nc3cc(C4CC4)[nH]n3)n2)cc1` [Compound 94, N′-(5-cyclopropyl-2H-pyrazol-3-yl)-N-(4-methylsulfonylphenyl)-pyrimidine-2,4-diamine], the pKi on PknB is 8.00 to 9.00. The MIC values result in assay [1] was “B++, B+”.

Take `O=S(=O)(c1ccc(-c2ncc(Cl)c(Nc3cc(C4CC4)[nH]n3)n2)s1)N1CCCC1` [Compound 98, 5-chloro-N-(5-cyclopropyl-1H-pyrazol-3-yl)-2-(5-pyrrolidin-1-ylsulfonyl-2-thienyl)-pyrimidin-4-amine]: the pKi at PknB is 8.00 to 9.00. In assay [1], the MIC values entry is listed as “B, C”.

On to `NS(=O)(=O)c1cccc(-c2ncc(O)c(Nc3cc(C4CC4)n[nH]3)n2)c1` [Compound 99, 3-(4-(3-cyclopropyl-1H-pyrazol-5-ylamino)-5-hydroxypyrimidin-2-yl)benzenesulfonamide], for which, on PknB, the negative-log Ki (pKi) was 7.30 to 8.00. Besides, in assay [1], the MIC values entry is on record as “B+, B”.

Take `CN(C)S(=O)(=O)c1ccc(Nc2nccc(Nc3cc(C4CC4)n[nH]3)n2)cc1` [Compound 103, 4-(4-(3-cyclopropyl-1H-pyrazol-5-ylamino)pyrimidin-2-ylamino)N,N-dimethylbenzenesulfonamide]: the “Ki Values” on PknB was “A**, A*”. The MIC values entry in assay [1] is listed as “B++, B+”.

`Oc1cccc(-c2ncc(Cl)c(Nc3cc(C4CC4)[nH]n3)n2)c1` [Compound 104, 3-[5-chloro-4-[(5-cyclopropyl-1H-pyrazol-3-yl)amino]-pyrimidin-2-yl]phenol]: at PknB, the “Ki Values” was “A*, A”. The MIC values result in assay [1] is recorded as “B++, C”.

As to `CS(=O)(=O)Nc1ccc(-c2ncc(Cl)c(Nc3cc(C4CC4)[nH]n3)n2)cc1` [Compound 105, N-[4-[5-chloro-4-[(5-cyclopropyl-1H-pyrazol-3-yl)amino]pyrimidin-2-yl]phenyl]methanesulfonamide], the pKi at PknB is 7.30 to 8.00. Also, the MIC values entry in assay [1] was “B+”.

`O=S(=O)(c1ccc(-c2ncc(Cl)c(Nc3cc(C4CC4)[nH]n3)n2)s1)N1CCOCC1` [Compound 106, 5-chloro-N-(5-cyclopropyl-1H-pyrazol-3-yl)-2-(5-morpholinosulfonyl-2-thienyl)-pyrimidin-4-amine]: the “Ki Values” at PknB is “A*, A”. In addition, the MIC values result in assay [1] is reported as “B++, C”.

Turning to `CS(=O)(=O)Nc1cccc(-c2ncc(Cl)c(Nc3cc(C4CC4)[nH]n3)n2)c1` [Compound 107, N-[3-[5-chloro-4-[(5-cyclopropyl-1H-pyrazol-3-yl)amino]pyrimidin-2-yl]phenyl]methanesulfonamide], the pKi at PknB is 7.00 to 7.30. Further, the MIC values result in assay [1] is “B++, B+”.

For `C#Cc1cnc(-c2ccc(S(=O)(=O)NCCO)s2)nc1Nc1cc(C2CC2)[nH]n1` [Compound 108, 5-(4-(3-cyclopropyl-1H-pyrazol-5-ylamino)-5-ethynylpyrimidin-2-yl)-N-(2-hydroxyethyl)thiophene-2-sulfonamide], the negative-log Ki (pKi) at PknB is 8.00 to 9.00. Moreover, the MIC values result in assay [1] is listed as “B+”.
